Experimental data: PubChem BioAssay AID2060620 (Molecular Pharmacology Branch, DTP, NCI, 2025)

Test system: 328373-195-R-J1-PDC complex spheroids, viability % test/control
Test: Anticancer human tumor 328373-195-R-J1-PDC patient-derived head and neck squamous carcinoma cell line growth inhibition [CLK]
Details: for IC50: curve of first compound; for viability, T/C: stronger effect = lower value; active = viability on the fitted dose curve at most 10% of control; inactive = the rest
Method in brief: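 Patient-derived tumor cells grown as complex spheroids with HUVEC endothelial cells and mesenchymal stem cells, treated with drug combinations. Concentrations descend in half-log steps from near clinical Cmax, or from 10 microM if Cmax unknown.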
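Note: spheroids exposed to the agents for 7 days.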

C=CC(=O)Nc1cc(Nc2nccc(-c3cn(C)c4ccccc34)n2)c(OC)cc1N(C)CCN(C)C + CN1CCN(c2cc(C(=O)Nc3cc4cc(-c5cnn(C)c5)ccc4cn3)ccn2)CC1
> 300 nM: IC50 (second compound 0.0316 µM) | IC50 (second compound 0.1 µM)
inactive: viability, T/C (second compound 0.0316 µM, first compound 0.000949 µM) 100% | viability, T/C (second compound 0.0316 µM, first compound 0.003 µM) 112% | viability, T/C (second compound 0.0316 µM, first compound 0.00949 µM) 99.2% | viability, T/C (second compound 0.0316 µM, first compound 0.03 µM) 96.9% | viability, T/C (second compound 0.0316 µM, first compound 0.0949 µM) 98.7% | viability, T/C (second compound 0.0316 µM, first compound 0.3 µM) 93.6% | viability, T/C (second compound 0.1 µM, first compound 0.000949 µM) 83.8% | viability, T/C (second compound 0.1 µM, first compound 0.003 µM) 88.1% | viability, T/C (second compound 0.1 µM, first compound 0.00949 µM) 87.4% | viability, T/C (second compound 0.1 µM, first compound 0.03 µM) 90.7% | viability, T/C (second compound 0.1 µM, first compound 0.0949 µM) 96% | viability, T/C (second compound 0.1 µM, first compound 0.3 µM) 69% | viability, T/C (second compound 0.316 µM, first compound 0.000949 µM) 30.1% | viability, T/C (second compound 0.316 µM, first compound 0.003 µM) 35% | viability, T/C (second compound 0.316 µM, first compound 0.00949 µM) 30.1% | viability, T/C (second compound 0.316 µM, first compound 0.03 µM) 26.3% | viability, T/C (second compound 0.316 µM, first compound 0.0949 µM) 26.6% | viability, T/C (second compound 0.316 µM, first compound 0.3 µM) 18.1%
active: viability, T/C (second compound 1 µM, first compound 0.000949 µM) 0.15% | viability, T/C (second compound 1 µM, first compound 0.003 µM) 0.25% | viability, T/C (second compound 1 µM, first compound 0.00949 µM) 0.9% | viability, T/C (second compound 1 µM, first compound 0.03 µM) 0.25% | viability, T/C (second compound 1 µM, first compound 0.0949 µM) 1.86% | viability, T/C (second compound 1 µM, first compound 0.3 µM) 1.95% | viability, T/C (second compound 3.16 µM, first compound 0.000949 µM) 1.21% | viability, T/C (second compound 3.16 µM, first compound 0.003 µM) 0.16% | viability, T/C (second compound 3.16 µM, first compound 0.00949 µM) 0.17% | viability, T/C (second compound 3.16 µM, first compound 0.03 µM) 0.15% | viability, T/C (second compound 3.16 µM, first compound 0.0949 µM) 4.52% | viability, T/C (second compound 3.16 µM, first compound 0.3 µM) 2.34% | viability, T/C (second compound 10 µM, first compound 0.000949 µM) 0.17% | viability, T/C (second compound 10 µM, first compound 0.003 µM) 0.21% | viability, T/C (second compound 10 µM, first compound 0.00949 µM) 1.31% | viability, T/C (second compound 10 µM, first compound 0.03 µM) 2.14% | viability, T/C (second compound 10 µM, first compound 0.0949 µM) 3.21% | viability, T/C (second compound 10 µM, first compound 0.3 µM) 0.21%
< 0.949 nM: IC50 (second compound 0.316 µM) | IC50 (second compound 1 µM) | IC50 (second compound 3.16 µM) | IC50 (second compound 10 µM)

CC1(C)CCC(CN2CCN(c3ccc(C(=O)NS(=O)(=O)c4ccc(NCC5CCOCC5)c([N+](=O)[O-])c4)c(Oc4cnc5[nH]ccc5c4)c3)CC2)=C(c2ccc(Cl)cc2)C1 + CN1CCN(c2cc(C(=O)Nc3cc4cc(-c5cnn(C)c5)ccc4cn3)ccn2)CC1
> 10000 nM: IC50 (second compound 0.1 µM)
< 31.6 nM: IC50 (second compound 0.316 µM) | IC50 (second compound 1 µM) | IC50 (second compound 3.16 µM) | IC50 (second compound 10 µM)
6500 nM: IC50 (second compound 0.0316 µM)
inactive: viability, T/C (second compound 0.0316 µM, first compound 0.0316 µM) 98.7% | viability, T/C (second compound 0.0316 µM, first compound 0.1 µM) 99.3% | viability, T/C (second compound 0.0316 µM, first compound 0.316 µM) 93.3% | viability, T/C (second compound 0.0316 µM, first compound 1 µM) 91.4% | viability, T/C (second compound 0.0316 µM, first compound 3.16 µM) 83.8% | viability, T/C (second compound 0.0316 µM, first compound 10 µM) 30.1% | viability, T/C (second compound 0.1 µM, first compound 0.0316 µM) 88.8% | viability, T/C (second compound 0.1 µM, first compound 0.1 µM) 83.2% | viability, T/C (second compound 0.1 µM, first compound 0.316 µM) 86.4% | viability, T/C (second compound 0.1 µM, first compound 1 µM) 81.8% | viability, T/C (second compound 0.1 µM, first compound 3.16 µM) 78.2% | viability, T/C (second compound 0.1 µM, first compound 10 µM) 51.5% | viability, T/C (second compound 0.316 µM, first compound 0.0316 µM) 28% | viability, T/C (second compound 0.316 µM, first compound 0.1 µM) 34.3% | viability, T/C (second compound 0.316 µM, first compound 0.316 µM) 33.9% | viability, T/C (second compound 0.316 µM, first compound 1 µM) 31.2% | viability, T/C (second compound 0.316 µM, first compound 3.16 µM) 33% | viability, T/C (second compound 0.316 µM, first compound 10 µM) 40.4%
active: viability, T/C (second compound 1 µM, first compound 0.0316 µM) 0.22% | viability, T/C (second compound 1 µM, first compound 0.1 µM) 0.22% | viability, T/C (second compound 1 µM, first compound 0.316 µM) 0.21% | viability, T/C (second compound 1 µM, first compound 1 µM) 0.14% | viability, T/C (second compound 1 µM, first compound 3.16 µM) 2.75% | viability, T/C (second compound 1 µM, first compound 10 µM) 3.03% | viability, T/C (second compound 3.16 µM, first compound 0.0316 µM) 0.09% | viability, T/C (second compound 3.16 µM, first compound 0.1 µM) 0.14% | viability, T/C (second compound 3.16 µM, first compound 0.316 µM) 1.25% | viability, T/C (second compound 3.16 µM, first compound 1 µM) 0.12% | viability, T/C (second compound 3.16 µM, first compound 3.16 µM) 0.11% | viability, T/C (second compound 3.16 µM, first compound 10 µM) 0.15% | viability, T/C (second compound 10 µM, first compound 0.0316 µM) 0.11% | viability, T/C (second compound 10 µM, first compound 0.1 µM) 1.97% | viability, T/C (second compound 10 µM, first compound 0.316 µM) 3.19% | viability, T/C (second compound 10 µM, first compound 1 µM) 0.16% | viability, T/C (second compound 10 µM, first compound 3.16 µM) 1.92% | viability, T/C (second compound 10 µM, first compound 10 µM) 2.43%
